Test system: Escherichia coli ATCC 25922
Experiment: 50% growth inhibitory concentration (IC50) determination, Iso-Sensitest broth dilution
Format: cell-based
Details: Escherichia coli, ATCC25922, 16 h, strain Escherichia coli ATCC 25922; 10-point broth dilution, optical density at 600 nm over 16 h; read-out: Escherichia coli growth inhibition IC50
Method in brief: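 10-point twofold Iso-Sensitest broth dilution (e.g. 50 to 0.097 μM final) with DMSO stocks, incubated at 35±2° C. Growth followed by OD 600 nm every 20 min over 16 h; IC50 derived from growth inhibition during logarithmic phase.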

Compound	IC50 [nM]
Cc1nc(OC[C@H](N)CO)c(C)c2c1CC(CNCCC1CN(c3ccc4c(n3)NC(=O)CO4)C(=O)O1)C2 (stereo partly drawn) [Example 234, 6-[5-[2-[[3-[(2R)-2-Amino-3-hydroxypropoxy]-1,4-dimethyl-6,7-dihydro-5H-cyclopenta[c]pyridin-6-yl]methylamino]ethyl]-2-oxo-1,3-oxazolidin-3-yl]-4H-pyrido[3,2-b][1,4]oxazin-3-one]	212
Cc1nc(Cl)c2c(c1F)CC(CNCCC1CN(c3cnc4c(n3)NC(=O)CO4)C(=O)O1)C2 (stereo not drawn) [Example 431, 6-[5-[2-[(1-chloro-4-fluoro-3-methyl-6,7-dihydro-5H-cyclopenta[o]pyridin-6-yl)methylamino]ethyl]-2-oxo-1,3-oxazolidin-3-yl]-4H-pyrazino[2,3-b][1,4]oxazin-3-one; formic acid]	< 97.7
Cc1nccc2c1CC(CNCCC1CN(c3ccc4c(n3)NC(=O)CO4)C(=O)O1)C2 (stereo not drawn) [Example 88, 6-[5-[2-[(1-methyl-6,7-dihydro-5H-cyclopenta[c]pyridin-6-yl)methylamino]ethyl]-2-oxo-1,3-oxazolidin-3-yl]-4H-pyrido[3,2-b][1,4]oxazin-3-one]	168
N#Cc1cccc2c1CC(CNCCC1CN(c3ncc4c(n3)NC(=O)CO4)C(=O)O1)C2 (stereo not drawn) [Example 289, 2-[[2-[2-oxo-3-(7-oxo-8H-pyrimido [5,4-b] [1,4]oxazin-2-yl)-1,3-oxazolidin-5-yl]ethylamino]methyl]-2,3-dihydro-1H-indene-4-carbonitrile]	< 97.7
CNC(=O)COc1cc(C#N)c2c(c1)CC(CNCCC1CN(c3ccc4c(n3)NC(=O)CO4)C(=O)O1)C2 (stereo not drawn) [Example 107, 2-[[7-cyano-2-[[2-[2-oxo-3-(3-oxo-4H-pyrido[3,2-b][1,4]oxazin-6-yl)-1,3-oxazolidin-5-yl]ethylamino]methyl]-2,3-dihydro-1H-inden-5-yl]oxy]-N-methylacetamide]	235
O=C1COc2ccc(N3CC(CCCNC4Cc5cccc(Cl)c5C4)OC3=O)nc2N1 (stereo not drawn) [Example 4, 6-[5-[3-[(4-chloro-2,3-dihydro-1H-inden-2-yl)amino]propyl]-2-oxo-1,3-oxazolidin-3-yl]-4H-pyrido[3,2-b][1,4]oxazin-3-one]	< 97.7
NC1c2cccc(Cl)c2CC1CNCCC1CN(c2ncc3c(n2)NC(=O)CO3)C(=O)O1 (racemic) [Example 290, 2-[5-[2-[(rac-1,2-trans-1-amino-4-chloro-2,3-dihydro-1H-inden-2-yl)methylamino]ethyl]-2-oxo-1,3-oxazolidin-3-yl]-8H-pyrimido[5,4-b][1,4]oxazin-7-one]	261
NC1c2cccc(Cl)c2CC1CNCCC1CN(c2ccc3c(n2)NC(=O)CO3)C(=O)O1 (single isomer, unassigned; isomer a) [Example 207, 6-[2-Oxo-5-[2-[[1,2-trans-1-amino-4-chloro-2,3-dihydro-1H-inden-2-yl]methylamino]ethyl]-1,3-oxazolidin-3-yl]-4H-pyrido[3,2-b][1,4]oxazin-3-one, Isomer A]	< 97.7
NCCOc1ncc2c(c1Cl)CC(CNCCC1CN(c3ccc4c(n3)NC(=O)CO4)C(=O)O1)C2 (stereo not drawn) [Example 174, 6-[5-[2-[[3-(2-aminoethoxy)-4-chloro-6,7-dihydro-5H-cyclopenta[c]pyridin-6-yl]methylamino]ethyl]-2-oxo-1,3-oxazolidin-3-yl]-4H-pyrido[3,2-b][1,4]oxazin-3-one]	< 97.7
N#Cc1nc(OCC2(N)CC2)cc2c1CC(CNCCC1CN(c3ccc4c(n3)NC(=O)CO4)C(=O)O1)C2 (stereo not drawn) [Example 125]	111
Cc1ncc(F)c2c1CC(N[C@H]1CC[C@]3(CC1)CN(c1cnc4c(n1)NC(=O)CO4)C(=O)O3)C2 (stereo partly drawn) [Example 297, trans-6-[8-[(4-fluoro-1-methyl-6,7-dihydro-5H-cyclopenta[c]pyridin-6-yl)amino]-2-oxo-1-oxa-3-azaspiro[4.5]decan-3-yl]-4H-pyrazino[2,3-b][1,4]oxazin-3-one; formic acid]	249
O=C1COc2ccc(N3CC(CCCNC4Cc5ccccc5C4)OC3=O)nc2N1 (stereo not drawn) [Example 9, 6-[5-[3-(2,3-dihydro-1H-inden-2-ylamino)propyl]-2-oxo-1,3-oxazolidin-3-yl]-4H-pyrido[3,2-b][1,4]oxazin-3-one; formic acid]	439
Cc1ncc(F)c2c1C[C@H](CNCC[C@@H]1CN(c3cnc4c(n3)NC(=O)CO4)C(=O)O1)C2 [Example 430]	< 97.7
NCCOc1cc(Cl)c2c(c1)CC(CNCCC1CN(c3ccc4c(n3)NC(=O)CO4)C(=O)O1)C2 (stereo not drawn) [Example 177, 6-[5-[2-[[6-(2-aminoethoxy)-4-chloro-2,3-dihydro-1H-inden-2-yl]methylamino]ethyl]-2-oxo-1,3-oxazolidin-3-yl]-4H-pyrido[3,2-b][1,4]oxazin-3-one]	< 97.7
N[C@H]1c2cccc(Cl)c2C[C@@H]1CNCC[C@H]1CN(c2cnc3c(n2)NC(=O)CO3)C(=O)O1 [Example 401, 6-[(5S)-5-[2-[[(1R,2R)-1-amino-4-chloro-2,3-dihydro-1H-inden-2-yl]methylamino]ethyl]-2-oxo-1,3-oxazolidin-3-yl]-4H-pyrazino[2,3-b][1,4]oxazin-3-one]	< 97.7
N#Cc1cccc2c1CC(CNCCC1(N)CC(=O)N(c3ccc4c(n3)NC(=O)CO4)C1)C2 (stereo not drawn) [Example 138, 2-[[2-[3-amino-5-oxo-1-(3-oxo-4H-pyrido[3,2-b][1,4]oxazin-6-yl)pyrrolidin-3-yl]ethylamino]methyl]-2,3-dihydro-1H-indene-4-carbonitrile]	359
NC1c2cc(OCC3(N)CC3)cc(Cl)c2CC1CNCCC1CN(c2ccc3c(n2)NC(=O)CO3)C(=O)O1 (racemic) [Example 273, 6-[2-Oxo-5-[2-[[rac-1,2-trans-1-amino-6-[(1-aminocyclopropyl)methoxy]-4-chloro-2,3-dihydro-1H-inden-2-yl]methylamino]ethyl]-1,3-oxazolidin-3-yl]-4H-pyrido[3,2-b][1,4]oxazin-3-one; formic acid]	148
N#Cc1cc(OCc2cnc[nH]2)cc2c1CC(CNCCC1CN(c3cnc4c(n3)NC(=O)CO4)C(=O)O1)C2 (stereo not drawn) [Example 406, 6-(1H-imidazol-5-ylmethoxy)-2-[[2-[2-oxo-3-(3-oxo-4H-pyrazino[2,3-b][1,4]oxazin-6-yl)-1,3-oxazolidin-5-yl]ethylamino]methyl]-2,3-dihydro-1H-indene-4-carbonitrile; formic acid]	139
CNC(=O)COc1ccc2c(c1C#N)CC(CNCCC1CN(c3cnc4c(n3)NC(=O)CO4)C(=O)O1)C2 (stereo not drawn) [Example 286, 2-[[4-cyano-2-[[2-[2-oxo-3-(3-oxo-4H-pyrazino[2,3-b][1,4]oxazin-6-yl)-1,3-oxazolidin-5-yl]ethylamino]methyl]-2,3-dihydro-1H-inden-5-yl]oxy]-N-methylacetamide]	< 97.7
Cc1c(OCC2(N)CC2)nc(C#N)c2c1CC(CNCCC1CN(c3ccc4c(n3)NC(=O)CO4)C(=O)O1)C2 (stereo not drawn) [Example 213, 3-[(1-aminocyclopropyl)methoxy]-4-methyl-6-[[2-[2-oxo-3-(3-oxo-4H-pyrido[3,2-b][1,4]oxazin-6-yl)-1,3-oxazolidin-5-yl]ethylamino]methyl]-6,7-dihydro-5H-cyclopenta[c]pyridine-1-carbonitrile]	< 97.7
O=C1COc2ccc(N3CC(CCCNC4Cc5cccc(F)c5C4)OC3=O)nc2N1 (stereo not drawn) [Example 8, 6-[5-[3-[(4-fluoro-2,3-dihydro-1H-inden-2-yl)amino]propyl]-2-oxo-1,3-oxazolidin-3-yl]-4H-pyrido[3,2-b][1,4]oxazin-3-one; formic acid]	167
N#Cc1cc(OC2CCNC2)cc2c1CC(CNCCC1CN(c3ccc4c(n3)NC(=O)CO4)C(=O)O1)C2 (stereo not drawn) [Example 254, 2-[[2-[2-Oxo-3-(3-oxo-4H-pyrido[3,2-b][1,4]oxazin-6-yl)-1,3-oxazolidin-5-yl]ethylamino]methyl]-6-pyrrolidin-3-yloxy-2,3-dihydro-1H-indene-4-carbonitrile; formic acid]	188
Cc1ncc(C#N)c2c1CC(NCCCc1cn(-c3cnc4c(n3)NC(=O)CO4)c(=O)o1)C2 (single isomer, unassigned; enantiomer a) [Example 321, 1-Methyl-6-[3-[2-oxo-3-(3-oxo-4H-pyrazino[2,3-b][1,4]oxazin-6-yl)-1,3-oxazol-5-yl]propylamino]-6,7-dihydro-5H-cyclopenta[c]pyridine-4-carbonitrile, Enantiomer A]	< 97.7
NC1(COc2cc(F)c3c(c2F)CC(CNCCC2CN(c4ccc5c(n4)NC(=O)CO5)C(=O)O2)C3)CC1 (stereo not drawn) [Example 409, 6-[5-[2-[[5-[(1-aminocyclopropyl)methoxy]-4,7-difluoro-2,3-dihydro-1H-inden-2-yl]methylamino]ethyl]-2-oxo-1,3-oxazolidin-3-yl]-4H-pyrido[3,2-b][1,4]oxazin-3-one; formic acid]	< 97.7
Cc1c(OC[C@H](N)CO)nc(C#N)c2c1CC(CNCCC1CN(c3ccc4c(n3)NC(=O)CO4)C(=O)O1)C2 (stereo partly drawn) [Example 235, 3-[(2R)-2-Amino-3-hydroxypropoxy]-4-methyl-6-[[2-[2-oxo-3-(3-oxo-4H-pyrido[3,2-b][1,4]oxazin-6-yl)-1,3-oxazolidin-5-yl]ethylamino]methyl]-6,7-dihydro-5H-cyclopenta[c]pyridine-1-carbonitrile]	196
N#Cc1cccc2c1CC(CNC[C@H](O)[C@@H]1CN(c3ccc4c(c3)NC(=O)CO4)C(=O)O1)C2 (stereo partly drawn) [Example 62, 2-[[[(2S)-2-hydroxy-2-[(5S)-2-oxo-3-(3-oxo-4H-1,4-benzoxazin-6-yl)-1,3-oxazolidin-5-yl]ethyl]amino]methyl]-2,3-dihydro-1H-indene-4-carbonitrile; formic acid]	208
CS(=O)(=O)CCOc1cc(F)c2c(c1)CC(CNCCC1CN(c3cnc4c(n3)NC(=O)CO4)C(=O)O1)C2 (stereo not drawn) [Example 353, 6-[5-[2-[[4-fluoro-6-(2-methylsulfonylethoxy)-2,3-dihydro-1H-inden-2-yl]methylamino]ethyl]-2-oxo-1,3-oxazolidin-3-yl]-4H-pyrazino[2,3-b][1,4]oxazin-3-one; formic acid]	170

From patent US20230167127A1, “COMPOUNDS AND THEIR USE IN THE TREATMENT OF BACTERIAL INFECTION” (Hoffmann-La Roche Inc., priority 2020, published 2023)
